According to ChEMBL document CHEMBL1201862, “PubChem BioAssay data set” (2004):
Activity calls are given as the source filed them. Cut-off read from the data, not from the text of the source, for most assays here: actives have a measured EC50 and inactives only a lower limit.

Tests used:
[1] = miR-122 activators in hepatoma reporter cells, dose response, cell-based, Huh7 psiCHECK-miR122, Renilla luciferase, cherry-picked (AID 651956); assay type: functional;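 note: huh7 hepatoma cells stably carrying a psiCHECK-2 miR-122 sensor plasmid; renilla luciferase signal reporting endogenous miR-122 activity after 48 h compound exposure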
Protein Wnt-3a = Protein Wnt-3a (Mus musculus, UniProt P27467); assay: Wnt3a-driven reporter signaling inhibition, dose response, selectivity assay for Gli-SUFU antagonist project, Wnt-LIGHT cells, luminescence (AID 651570); assay type: functional; details: read-out: IC50_Mean;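 note: Wnt-LIGHT reporter cells stimulated with conditioned medium from Wnt3a-producing cells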
Sequence of Protein Wnt-3a (P27467 whole entry): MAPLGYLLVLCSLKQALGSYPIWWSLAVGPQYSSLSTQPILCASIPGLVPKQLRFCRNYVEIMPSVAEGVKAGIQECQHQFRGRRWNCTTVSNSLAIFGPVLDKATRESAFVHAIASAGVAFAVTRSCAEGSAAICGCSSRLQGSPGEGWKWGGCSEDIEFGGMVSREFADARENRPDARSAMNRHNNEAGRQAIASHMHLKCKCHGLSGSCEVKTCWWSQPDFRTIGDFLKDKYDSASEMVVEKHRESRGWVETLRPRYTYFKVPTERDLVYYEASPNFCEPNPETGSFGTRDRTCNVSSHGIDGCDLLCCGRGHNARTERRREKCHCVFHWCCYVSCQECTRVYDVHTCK

Genome polyprotein = Genome polyprotein (dengue virus type 2, UniProt P29990); assay: Dengue-2 NS5 methyltransferase inhibitors, primary screen, biochemical, confirmation dose response (AID 588689); assay type: functional
Sequence of Genome polyprotein (P29990 2492-3391 limits assumed): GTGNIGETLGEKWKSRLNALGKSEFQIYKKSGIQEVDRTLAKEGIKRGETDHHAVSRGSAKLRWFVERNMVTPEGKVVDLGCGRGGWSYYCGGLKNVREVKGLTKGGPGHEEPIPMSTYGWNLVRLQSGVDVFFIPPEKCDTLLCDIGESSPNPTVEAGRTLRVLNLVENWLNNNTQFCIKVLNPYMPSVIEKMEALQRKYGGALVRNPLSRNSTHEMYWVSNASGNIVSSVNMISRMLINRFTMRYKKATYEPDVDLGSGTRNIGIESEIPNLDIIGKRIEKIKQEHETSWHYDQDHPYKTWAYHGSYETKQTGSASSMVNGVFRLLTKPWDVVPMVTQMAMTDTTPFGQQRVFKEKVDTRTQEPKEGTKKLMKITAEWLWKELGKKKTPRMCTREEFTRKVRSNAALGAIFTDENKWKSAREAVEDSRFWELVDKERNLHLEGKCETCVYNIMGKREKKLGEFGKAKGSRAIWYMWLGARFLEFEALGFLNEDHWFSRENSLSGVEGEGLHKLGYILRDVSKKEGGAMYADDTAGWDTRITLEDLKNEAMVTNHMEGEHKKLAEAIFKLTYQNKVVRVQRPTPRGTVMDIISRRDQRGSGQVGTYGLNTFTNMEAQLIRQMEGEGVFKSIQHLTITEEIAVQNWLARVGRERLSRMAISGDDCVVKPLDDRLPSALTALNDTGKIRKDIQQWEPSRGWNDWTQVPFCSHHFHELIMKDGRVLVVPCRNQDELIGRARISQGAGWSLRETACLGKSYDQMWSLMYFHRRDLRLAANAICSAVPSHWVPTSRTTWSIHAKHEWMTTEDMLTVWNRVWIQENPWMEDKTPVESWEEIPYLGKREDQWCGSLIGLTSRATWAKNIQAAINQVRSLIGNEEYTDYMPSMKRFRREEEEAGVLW

Vero [2] = assay: Vero cell cytotoxicity, cytotoxicity control for flavivirus capping enzyme inhibitors (AID 588742); assay type: functional; details: Chlorocebus sabaeus
[3] = molecular target: T1, Endoribonuclease toxin MazF (Escherichia coli K-12, UniProt P0AE70); assay: MazF toxin RNase activators, dose response, biochemical, fluorescence, single-stranded RNA substrate, uHTS hits (AID 588481); assay type: functional
T1 sequence (P0AE70 whole entry): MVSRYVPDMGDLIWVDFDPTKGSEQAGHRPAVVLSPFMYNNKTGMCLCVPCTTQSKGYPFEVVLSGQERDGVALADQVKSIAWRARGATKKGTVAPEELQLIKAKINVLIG

[4] = molecular target: T1, Endoribonuclease toxin MazF; assay: fluorescent RNA oligo signal without MazF, dose response, counter-screen for MazEF activator project, biochemical, fluorescence, single-stranded RNase substrate (AID 588502); assay type: functional
[5] = molecular target: T2, Hepatocyte nuclear factor 4-alpha (Homo sapiens, UniProt P41235); assay type: functional, cell-based;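 note: biochemical luminescence-based dose-response counterscreen measuring inhibition of HNF4 dimerization, run alongside a screen for blockers of ABHD5–perilipin-5 interaction; split luciferase complementation of HNF4 fusion proteins in cell lysate measuring dimerization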
T2 sequence (P41235 whole entry): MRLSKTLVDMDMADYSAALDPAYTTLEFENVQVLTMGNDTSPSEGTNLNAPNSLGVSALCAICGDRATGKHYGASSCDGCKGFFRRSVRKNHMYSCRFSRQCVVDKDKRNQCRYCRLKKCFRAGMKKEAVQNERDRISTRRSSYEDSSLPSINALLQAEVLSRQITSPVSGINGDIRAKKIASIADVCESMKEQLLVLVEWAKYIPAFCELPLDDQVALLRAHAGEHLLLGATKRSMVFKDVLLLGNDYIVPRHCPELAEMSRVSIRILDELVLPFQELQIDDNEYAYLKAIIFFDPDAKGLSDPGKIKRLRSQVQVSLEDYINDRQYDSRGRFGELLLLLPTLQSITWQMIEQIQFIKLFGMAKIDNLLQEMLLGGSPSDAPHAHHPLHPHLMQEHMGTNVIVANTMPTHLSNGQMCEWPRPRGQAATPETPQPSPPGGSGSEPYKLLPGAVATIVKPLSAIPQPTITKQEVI

BJ [6] = assay: cytotoxicity toward Ras-transformed BJeLR fibroblasts, dose response, cell-based, alamar blue fluorescence, cherrypicked samples (AID 2631); assay type: functional; details: Homo sapiens;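 note: confirmatory dose-response assay in RAS-dependent BJ fibroblasts engineered with TERT, LT and ST, with cytotoxicity read by fluorescence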
Vero [7] = assay: cells; assay type: functional; details: Chlorocebus sabaeus
[8] = molecular target: T3, Serine/threonine-protein phosphatase (Candida dubliniensis (strain CD36 / CBS 7987 / NCPF 3949 / NRRLY-17841) (Yeast), UniProt B9W6M3); assay: calcineurin pathway inhibitors in yeast reporter, dose response, S. cerevisiae, CDRE-lacZ, luminescence, secondary (AID 2388); assay type: functional, cell-based;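 note: yeast reporter cells carrying a calcineurin-responsive lacZ construct stimulated with calcium chloride; luminescent beta-galactosidase reporter signal in whole cells rather than isolated phosphatase activity; potency for inhibition where a drop in reporter signal means calcineurin blockade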
T3 sequence (B9W6M3 whole entry): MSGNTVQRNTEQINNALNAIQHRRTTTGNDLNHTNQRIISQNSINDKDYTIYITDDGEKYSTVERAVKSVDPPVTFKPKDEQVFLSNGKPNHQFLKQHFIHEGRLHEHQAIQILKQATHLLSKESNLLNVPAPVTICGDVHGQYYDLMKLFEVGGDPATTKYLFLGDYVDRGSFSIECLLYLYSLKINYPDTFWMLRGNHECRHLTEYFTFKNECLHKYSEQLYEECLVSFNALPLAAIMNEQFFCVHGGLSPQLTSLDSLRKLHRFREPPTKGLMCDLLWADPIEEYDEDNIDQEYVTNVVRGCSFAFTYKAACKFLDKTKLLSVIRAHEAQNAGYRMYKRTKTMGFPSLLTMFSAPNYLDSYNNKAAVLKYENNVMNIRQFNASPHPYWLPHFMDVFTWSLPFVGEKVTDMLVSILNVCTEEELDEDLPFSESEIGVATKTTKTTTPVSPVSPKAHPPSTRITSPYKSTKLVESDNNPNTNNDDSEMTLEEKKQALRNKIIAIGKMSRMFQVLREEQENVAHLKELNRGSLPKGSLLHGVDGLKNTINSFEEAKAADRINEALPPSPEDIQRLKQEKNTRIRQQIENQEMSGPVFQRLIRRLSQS

[9] = C. albicans growth with fluconazole, confirmation, fluorescence, retest (AID 2467); assay type: functional, cell-based
[10] = inhibitors of intracellular T. cruzi replication, confirmation, NIH3T3 host cells, beta-gal luminescence (AID 2044); assay type: functional, cell-based;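 note: intracellular parasites grown in NIH/3T3 mouse fibroblasts as host cells; luminescent beta-galactosidase reporter signal from transgenic T. cruzi replicating inside host cells; inhibitors lower the luminescence signal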
[11] = molecular target: ATP-dependent molecular chaperone HSP82 (Candida albicans (strain WO-1) (Yeast), UniProt C4YTQ8); assay: loss of DOC-induced GRE-beta-galactosidase reporter signal, dose response, Hsp90 inhibitor project, S. cerevisiae, luminescence (AID 2400); assay type: functional, cell-based;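 note: beta-galactosidase luminescence from glucocorticoid response element reporter as proxy for Hsp90 function; inhibitor potency where signal loss means Hsp90 inhibition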
Sequence of ATP-dependent molecular chaperone HSP82 (C4YTQ8 whole entry): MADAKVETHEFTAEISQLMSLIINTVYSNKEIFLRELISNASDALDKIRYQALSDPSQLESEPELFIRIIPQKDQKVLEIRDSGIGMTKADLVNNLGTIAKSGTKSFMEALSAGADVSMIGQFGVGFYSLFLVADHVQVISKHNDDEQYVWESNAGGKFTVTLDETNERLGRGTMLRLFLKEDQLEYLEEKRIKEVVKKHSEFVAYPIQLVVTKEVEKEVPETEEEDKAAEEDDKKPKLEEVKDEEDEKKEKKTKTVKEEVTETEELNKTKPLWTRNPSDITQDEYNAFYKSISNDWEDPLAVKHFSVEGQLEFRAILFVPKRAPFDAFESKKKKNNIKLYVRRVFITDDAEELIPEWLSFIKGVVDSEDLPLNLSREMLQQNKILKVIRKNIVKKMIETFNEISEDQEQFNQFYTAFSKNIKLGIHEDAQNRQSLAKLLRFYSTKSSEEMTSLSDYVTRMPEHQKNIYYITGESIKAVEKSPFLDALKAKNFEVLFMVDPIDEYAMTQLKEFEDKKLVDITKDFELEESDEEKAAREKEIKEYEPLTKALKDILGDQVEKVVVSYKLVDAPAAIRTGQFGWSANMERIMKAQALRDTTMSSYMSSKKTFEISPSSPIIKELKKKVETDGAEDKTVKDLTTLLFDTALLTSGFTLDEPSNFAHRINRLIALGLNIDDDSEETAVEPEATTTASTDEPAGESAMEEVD

[12] = NIH-3T3 fibroblast cytotoxicity, dose response, cytotoxicity control, cell-based, fluorescence, Alamar Blue, secondary assay (AID 2327); assay type: functional;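 note: NIH-3T3 mouse fibroblasts cultured with fluconazole at 8 µg/mL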
[13] = molecular target: Dual specificity tyrosine-phosphorylation-regulated kinase 1A (Rattus norvegicus, UniProt Q63470); assay type: biochemical, Homo sapiens
[14] = cytotoxicity toward NIH3T3 fibroblasts, dose response, counter-screen, cell-based, ATP luminescence, mouse fibroblasts (AID 2010); assay type: functional;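 note: cells exposed to compound for about 90 hours before reading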
BJ [15] = assay: cytotoxicity toward BJ-TERT-LT-ST fibroblasts, dose response, cell-based, RAS-independent, luminescence (AID 1935); assay type: functional; details: Homo sapiens;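 note: BJ fibroblasts immortalized with TERT plus LT and ST oncogenes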
[16] = cytotoxicity toward DRD oncogenic fibroblasts, dose response, cell-based, non-viral oncogenic, luminescence (AID 1934); assay type: functional; details: Homo sapiens
BJ [17] = assay: cytotoxicity toward BJ-TERT fibroblasts, dose response, cell-based, RAS-independent, luminescence (AID 1933); assay type: functional; details: Homo sapiens
BJ [18] = assay: cells; assay type: functional, cell-based, Homo sapiens; details: Homo sapiens, BJ
Streptokinase A = molecular target: T4, Streptokinase A (Streptococcus pyogenes serotype M1, UniProt P10520); assay: S. pyogenes streptokinase expression inhibitors, potency, dose response, plasminogen activation absorbance, OD405 (AID 1914); assay type: functional, Streptococcus pyogenes M1 GAS;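 note: secreted streptokinase activity via plasminogen activation per viability signal from cell pellet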
T4 sequence (P10520 whole entry): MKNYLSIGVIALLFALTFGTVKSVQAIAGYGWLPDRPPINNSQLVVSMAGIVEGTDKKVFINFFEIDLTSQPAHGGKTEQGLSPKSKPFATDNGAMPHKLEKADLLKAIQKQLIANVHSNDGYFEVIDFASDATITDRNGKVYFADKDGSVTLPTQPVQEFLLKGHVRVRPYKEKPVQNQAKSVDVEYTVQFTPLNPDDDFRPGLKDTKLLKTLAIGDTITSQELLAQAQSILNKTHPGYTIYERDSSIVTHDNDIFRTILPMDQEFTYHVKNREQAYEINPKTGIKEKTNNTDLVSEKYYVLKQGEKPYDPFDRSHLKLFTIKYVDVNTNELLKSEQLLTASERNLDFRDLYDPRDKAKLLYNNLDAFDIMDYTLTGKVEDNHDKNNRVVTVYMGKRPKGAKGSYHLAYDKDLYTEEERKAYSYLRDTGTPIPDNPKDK

Streptococcus = assay: Group A Streptococcus viability loss, dose response, counter-screen for streptokinase expression inhibitor project, luminescence, BacTiterGlo (AID 1915); assay type: functional, organism-based;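 note: potency for reduction of bacterial viability or growth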
[19] = system: Streptococcus sp. 'group A'; assay: growth inhibition of control SK(-) GAS strain, dose response, counter-screen for streptokinase expression inhibitor project, luminescence, kanamycin, BacTiterGlo, confirmation (AID 1900); assay type: functional, organism-based
Escherichia coli = assay: microbe, parasite or virus in culture
[20] = molecular target: FAD-linked sulfhydryl oxidase ALR (Homo sapiens, UniProt P55789); assay: inhibitors of human ALR sulfhydryl oxidase, dose response, biochemical, H2O2 detection, luminescence, cherry-pick (AID 493248)
[21] = Luminescence Cell-Based Dose Response HTS to Identify Inhibitors of 5'UTR Stem-Loop Driven Prion Protein mRNA Translation in H4 Neuroglioblastoma Cells. [Related pubchem assays: 1827 (Project Summary), 1813 (Primary HTS)]; assay type: functional
[22] = molecular target: Peroxisome proliferator-activated receptor gamma/Nuclear receptor coactivator 2 (Homo sapiens, UniProt P37231); assay type: functional;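 note: agonist potency for raising coactivator recruitment to the receptor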
Paired box protein Pax-8 = Paired box protein Pax-8 (Homo sapiens, UniProt Q06710); assay: inhibitors of PAX8-driven TPO luciferase reporter, dose response, RMG-I cells, cherry-pick (AID 687027); assay type: functional, cell-based;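 note: luciferase reporter driven by Pax8 target thyroperoxidase promoter measured by SteadyGlo luminescence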
Sequence of Paired box protein Pax-8 (Q06710 whole entry): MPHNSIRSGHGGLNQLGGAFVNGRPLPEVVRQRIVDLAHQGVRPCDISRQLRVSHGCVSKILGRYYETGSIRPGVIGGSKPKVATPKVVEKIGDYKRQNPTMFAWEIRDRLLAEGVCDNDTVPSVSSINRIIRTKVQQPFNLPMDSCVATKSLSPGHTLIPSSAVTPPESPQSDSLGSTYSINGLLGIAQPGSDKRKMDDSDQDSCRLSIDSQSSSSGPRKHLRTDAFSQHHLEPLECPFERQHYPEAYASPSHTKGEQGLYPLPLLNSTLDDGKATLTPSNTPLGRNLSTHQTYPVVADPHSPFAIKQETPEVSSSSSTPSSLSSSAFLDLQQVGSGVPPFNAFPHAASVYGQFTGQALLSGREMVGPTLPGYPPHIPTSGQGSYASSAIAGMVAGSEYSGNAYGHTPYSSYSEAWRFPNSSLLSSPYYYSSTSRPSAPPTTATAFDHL

[23] = inhibitors of firefly luciferase expression or activity, dose response, H4 neuroglioma cells, luminescence (AID 1990); assay type: functional, cell-based
[24] = molecular target: Peroxisome proliferator-activated receptor gamma/Nuclear receptor coactivator 3 (Homo sapiens, UniProt P37231); assay type: functional;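 note: agonist potency for raising coactivator recruitment to the receptor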
Cytochrome P450 3A4 = Cytochrome P450 3A4 (Homo sapiens, UniProt P08684);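 note: CYP3A4 tested as one member of a cytochrome P450 panel screen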
Sequence of Cytochrome P450 3A4 (P08684 whole entry): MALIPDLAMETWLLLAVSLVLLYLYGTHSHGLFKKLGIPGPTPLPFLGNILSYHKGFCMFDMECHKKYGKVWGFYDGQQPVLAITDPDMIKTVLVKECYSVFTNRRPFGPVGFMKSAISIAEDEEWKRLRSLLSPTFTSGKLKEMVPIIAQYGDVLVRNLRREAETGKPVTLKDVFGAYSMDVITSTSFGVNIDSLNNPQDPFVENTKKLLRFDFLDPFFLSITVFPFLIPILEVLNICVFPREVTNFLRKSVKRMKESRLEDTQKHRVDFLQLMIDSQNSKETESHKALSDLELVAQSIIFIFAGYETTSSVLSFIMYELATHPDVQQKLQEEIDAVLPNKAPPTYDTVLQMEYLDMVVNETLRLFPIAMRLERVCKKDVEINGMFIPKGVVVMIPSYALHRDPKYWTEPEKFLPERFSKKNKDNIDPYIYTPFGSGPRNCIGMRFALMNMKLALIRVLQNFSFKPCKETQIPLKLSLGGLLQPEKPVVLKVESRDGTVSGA

[25] = inhibitors of SNCA 5'UTR-driven reporter translation, confirmation, H4 neuroglioma cells, luminescence (AID 1988); assay type: functional, cell-based
[26] = molecular target: Peroxisome proliferator-activated receptor gamma/Nuclear receptor coactivator 1 (Homo sapiens, UniProt P37231); assay type: functional;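 note: agonist potency as compounds enhance coactivator SRC-1 recruitment to PPARgamma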
Sequence of Peroxisome proliferator-activated receptor gamma/Nuclear receptor coactivator 1 (P37231 whole entry): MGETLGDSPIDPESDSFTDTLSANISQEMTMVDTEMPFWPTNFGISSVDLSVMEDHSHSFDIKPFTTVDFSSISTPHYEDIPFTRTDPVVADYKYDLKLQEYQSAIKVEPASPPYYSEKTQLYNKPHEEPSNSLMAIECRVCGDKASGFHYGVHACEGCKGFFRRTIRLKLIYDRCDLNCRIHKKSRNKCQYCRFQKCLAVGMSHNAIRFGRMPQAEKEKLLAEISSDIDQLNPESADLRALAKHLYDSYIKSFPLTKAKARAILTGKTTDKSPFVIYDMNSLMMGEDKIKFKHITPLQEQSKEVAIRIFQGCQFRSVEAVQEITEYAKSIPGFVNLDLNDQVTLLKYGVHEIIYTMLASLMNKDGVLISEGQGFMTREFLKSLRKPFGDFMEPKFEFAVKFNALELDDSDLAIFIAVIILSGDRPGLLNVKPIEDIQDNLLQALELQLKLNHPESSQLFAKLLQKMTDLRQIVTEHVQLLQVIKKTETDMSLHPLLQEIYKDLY
Sequence of Peroxisome proliferator-activated receptor gamma/Nuclear receptor coactivator 1 (Q15788 whole entry, further chain): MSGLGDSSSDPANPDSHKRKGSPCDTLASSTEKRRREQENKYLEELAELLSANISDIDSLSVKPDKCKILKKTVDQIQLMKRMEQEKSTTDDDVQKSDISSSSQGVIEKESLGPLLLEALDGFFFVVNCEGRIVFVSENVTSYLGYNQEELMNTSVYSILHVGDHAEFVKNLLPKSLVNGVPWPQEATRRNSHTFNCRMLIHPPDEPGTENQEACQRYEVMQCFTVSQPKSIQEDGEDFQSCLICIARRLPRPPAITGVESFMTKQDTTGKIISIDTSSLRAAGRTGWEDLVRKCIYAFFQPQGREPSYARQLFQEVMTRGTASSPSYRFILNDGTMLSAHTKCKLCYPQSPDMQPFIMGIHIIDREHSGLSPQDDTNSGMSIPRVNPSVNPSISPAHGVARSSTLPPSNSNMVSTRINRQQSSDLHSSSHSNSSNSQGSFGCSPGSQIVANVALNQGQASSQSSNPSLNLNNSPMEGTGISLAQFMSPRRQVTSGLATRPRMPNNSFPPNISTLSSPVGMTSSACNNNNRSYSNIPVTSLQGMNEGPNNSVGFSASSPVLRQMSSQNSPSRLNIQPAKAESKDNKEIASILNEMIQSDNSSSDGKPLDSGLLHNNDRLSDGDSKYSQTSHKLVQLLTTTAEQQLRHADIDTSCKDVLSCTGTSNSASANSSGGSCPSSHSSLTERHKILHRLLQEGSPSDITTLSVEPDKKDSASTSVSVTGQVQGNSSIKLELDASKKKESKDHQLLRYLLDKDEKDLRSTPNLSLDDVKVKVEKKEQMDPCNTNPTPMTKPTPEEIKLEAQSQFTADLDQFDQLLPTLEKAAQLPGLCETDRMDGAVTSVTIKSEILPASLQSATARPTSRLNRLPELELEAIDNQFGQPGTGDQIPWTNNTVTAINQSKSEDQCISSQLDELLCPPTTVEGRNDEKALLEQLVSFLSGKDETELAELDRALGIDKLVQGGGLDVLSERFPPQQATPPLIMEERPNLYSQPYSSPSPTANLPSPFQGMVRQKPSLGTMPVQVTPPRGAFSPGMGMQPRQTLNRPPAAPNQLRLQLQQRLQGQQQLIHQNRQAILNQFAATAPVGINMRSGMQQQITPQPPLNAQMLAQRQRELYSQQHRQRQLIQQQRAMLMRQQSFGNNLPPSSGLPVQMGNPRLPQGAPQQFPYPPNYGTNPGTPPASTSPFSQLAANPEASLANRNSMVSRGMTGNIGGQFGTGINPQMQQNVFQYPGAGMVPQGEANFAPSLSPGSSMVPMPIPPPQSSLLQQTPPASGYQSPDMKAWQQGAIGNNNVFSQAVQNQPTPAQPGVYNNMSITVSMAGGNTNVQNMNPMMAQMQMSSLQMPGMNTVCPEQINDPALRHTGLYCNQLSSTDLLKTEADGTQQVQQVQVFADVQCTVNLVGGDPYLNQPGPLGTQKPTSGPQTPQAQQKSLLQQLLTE

In the case of `CCS(=O)(=O)Nc1ccc2c(c1)C(=O)N(C)C[C@@H](OC)[C@H](C)CN(CC1CCCC1)[C@H](C)CO2`, the AC50 [1] is reported as 23.6 µM (active).
In the case of `O=C(N[C@@H]1C/C=C\C[C@@H](CC(=O)N(CCO)Cc2ccccc2)C(=O)N[C@@H](c2ccccc2)COC1=O)OCC1c2ccccc2-c2ccccc21`, the IC50 (Protein Wnt-3a) is reported as 12.3 µM (active).
For `CCCCCCCCn1c(=O)c(C(=O)OCC)c(O)c2ccccc21`, the IC50 (Genome polyprotein) was 77.2 µM (active) and the CC50 (Vero [2]) was > 40 µM (active).
In the case of `CC(=O)N1CC[C+]([N-]NS(=O)(=O)c2cccc([N+](=O)[O-])c2)CC1`, the EC50 [3] is reported as > 99 µM (inactive) and the EC50 [4] is reported as 23.9 µM (inactive).
With `CC[n+]1ccn(C)c1P(c1ccccc1)c1ccccc1` the IC50 (Protein Wnt-3a) was 6.99 µM (active).
For `CCC(C(=O)OCCN(CC)CC)c1ccccc1` (centres undefined), the IC50 [5] was 23.9 µM (inactive).
For `Cc1cccc(C)c1NC(=O)C(c1ccccc1)n1c(=O)c(-c2ccco2)nc2ccccc21` (centres undefined), the IC50 [5] was 3.81 µM (active).
For `O=C(COC(=O)c1ccccc1C(=O)N1CCN(c2ccccc2)CC1)NCc1ccccc1`, the EC50 [3] was > 99 µM (inactive) and the EC50 [4] was > 99 µM (inactive).
With `CC(C)(C)NC(=O)C(c1cccc2ccccc12)n1c(=O)c(-c2ccco2)nc2ccccc21` (centres undefined) the IC50 [5] was 2.27 µM (active).
With `COCCCNC1=NN=C(c2cc(C)n(Cc3ccco3)c2C)CS1` the EC50 (BJ [6]) was 0.201 µM (active) and the CC50 (Vero [7]) was 2.27 µM (active).
In the case of `O=C1NC(=O)/C(=C\c2ccc(Br)o2)S1`, the EC50 [8] is reported as > 180 µM (inactive), the EC50 [9] is reported as 1.3 µM (active) and the EC50 [10] is reported as 21.7 µM (active). For the same compound, the EC50 [11] was > 150 µM (inactive), the EC50 [12] was 87.3 µM (inconclusive) and the AC50 [13] was 4.62 µM (active). For the same compound, the EC50 [14] was > 60 µM (not active).
For `C[C@@H]1C=CC(=O)O[C@@H]1c1ccc(C(F)(F)F)cc1`, the EC50 (BJ [6]) was 0.409 µM (active), the EC50 (BJ [15]) was 12.4 µM (active) and the EC50 [16] was 2.27 µM (active). For the same compound, the EC50 (BJ [17]) was 49.6 µM (active) and the EC50 (BJ [18]) was 5.53 µM (active).
For `Cc1ccc(S(=O)(=O)N2CCN(CC(=O)NC(=O)NCc3ccccc3)CC2)cc1C`, the EC50 [3] was > 99 µM (inactive) and the EC50 [4] was > 99 µM (inactive).
In the case of `O=C(Nc1nnc(-c2ccco2)o1)c1ccc(Cl)cc1`, the EC50 [8] is reported as > 180 µM (inactive), the EC50 [9] is reported as 0.9 µM (active) and the EC50 [11] is reported as > 150 µM (inactive). For the same compound, the EC50 (Streptokinase A) was > 150 µM (not active), the EC50 (Streptococcus) was 15.6 µM (active) and the EC50 [12] was > 150 µM (inactive). For the same compound, the EC50 [19] was 0.983 µM (active).
With `Cc1cc(C(C#N)c2ccccc2F)n2ncnc2n1` (centres undefined) the AC50 (Escherichia coli) was 36.4 µM (active), the EC50 [8] was > 180 µM (inactive) and the EC50 [9] was 1.28 µM (active). The AC50 [20] was 34.3 µM (active), the EC50 [11] was > 160 µM (inactive) and the EC50 [12] was > 150 µM (inconclusive).
For `FC(F)(F)c1nnc2c(Sc3ccc(Cl)cc3)nc3ccccc3n12`, the EC50 [21] was 9.77 µM (active), the EC50 (BJ [6]) was 0.565 µM (active) and the EC50 [22] was 21.7 µM (not active). For the same compound, the AC50 (Paired box protein Pax-8) was 1.27 µM (active), the EC50 (BJ [15]) was 5.54 µM (inconclusive) and the EC50 [23] was > 120 µM (not active). The EC50 [24] was 32.3 µM (not active), the AC50 (Cytochrome P450 3A4) was “inconclusive” and the EC50 [16] was 9.34 µM (inconclusive). For the same compound, the EC50 (BJ [17]) was 3.28 µM (inconclusive), the EC50 [25] was > 120 µM (not active) and the EC50 (BJ [18]) was 25.2 µM (active). The EC50 [26] was 24.3 µM (not active).
